Activity calls are given as the source filed them.
Columns and labels:
[1] = biological target: Lysine-specific demethylase 6B (Mus musculus) (UniProt Q5NCY0); assay: Inhibition of JMJD3 in mouse C17.2 cells at 20 uM for 3 hrs; type: cell-based
Mus musculus [2] = assay: In vivo inhibition of JMJD3 in SCI mouse model assessed as upregulation of H3K27me3 expression administered at 100 mg/kg, ip for 5 days followed by subcutaneous administration for 7 days by immunoblot analysis; type: functional, organism-based; details: time 12.0 day
Mus musculus [3] = assay: In vivo inhibition of JMJD3 in SCI mouse model assessed as upregulation of Olig2 expression administered at 100 mg/kg, ip for 5 days followed by subcutaneous administration for 7 days by immunoblot analysis; type: functional, organism-based; details: time 12.0 day
Mus musculus [4] = assay: Remyelination activity of SCI mouse model assessed as olig2 positive tube like structure administered at 100 mg/kg, ip for 5 days followed by subcutaneous administration for 7 days by immunohistochemical analysis; details: time 12.0 day
Mus musculus [5] = organism: Mus musculus; assay: […] of phosphorylated c-Jun at ser63 residue in SCI mouse model; type: functional, organism-based
[6] = biological target: Lysine-specific demethylase 6B (Mus musculus) (UniProt Q5NCY0); assay: Inhibition of JMJD3 in mouse C17.2 cell assessed as increased number of olig2 positive cell at 10 uM by Hoechst staining analysis; type: cell-based
[7] = biological target: Lysine-specific demethylase 6B (Mus musculus) (UniProt Q5NCY0); assay: Inhibition of JMJD3 in mouse Neural Progenitor cell assessed as Olig2 expression at 10 uM by immunoblot analysis; type: cell-based
[8] = biological target: Lysine-specific demethylase 6B (Mus musculus) (UniProt Q5NCY0); assay: Inhibition of JMJD3 in mouse C17.2 cell assessed as decreased number of GFAP positive cell at 10 uM by Hoechst staining analysis; type: cell-based
[9] = biological target: Lysine-specific demethylase 6B (Mus musculus) (UniProt Q5NCY0); assay: Inhibition of JMJD3 in mouse C17.2 cell assessed as Olig2 expression at 10 uM by immunoblot analysis; type: cell-based
[10] = biological target: Lysine-specific demethylase 6B (Mus musculus) (UniProt Q5NCY0); assay: Inhibition of JMJD3 in mouse Neural Progenitor cell assessed as enhanced Olig2 expression at 10 uM by immunofluorescent staining; type: cell-based
[11] = biological target: Lysine-specific demethylase 6B (Mus musculus) (UniProt Q5NCY0); assay: […] of JMJD3 in mouse C17.2 cells at 10 uM for 3 hrs; type: cell-based

Sequence of Lysine-specific demethylase 6B (Mus musculus) (Q5NCY0 whole entry): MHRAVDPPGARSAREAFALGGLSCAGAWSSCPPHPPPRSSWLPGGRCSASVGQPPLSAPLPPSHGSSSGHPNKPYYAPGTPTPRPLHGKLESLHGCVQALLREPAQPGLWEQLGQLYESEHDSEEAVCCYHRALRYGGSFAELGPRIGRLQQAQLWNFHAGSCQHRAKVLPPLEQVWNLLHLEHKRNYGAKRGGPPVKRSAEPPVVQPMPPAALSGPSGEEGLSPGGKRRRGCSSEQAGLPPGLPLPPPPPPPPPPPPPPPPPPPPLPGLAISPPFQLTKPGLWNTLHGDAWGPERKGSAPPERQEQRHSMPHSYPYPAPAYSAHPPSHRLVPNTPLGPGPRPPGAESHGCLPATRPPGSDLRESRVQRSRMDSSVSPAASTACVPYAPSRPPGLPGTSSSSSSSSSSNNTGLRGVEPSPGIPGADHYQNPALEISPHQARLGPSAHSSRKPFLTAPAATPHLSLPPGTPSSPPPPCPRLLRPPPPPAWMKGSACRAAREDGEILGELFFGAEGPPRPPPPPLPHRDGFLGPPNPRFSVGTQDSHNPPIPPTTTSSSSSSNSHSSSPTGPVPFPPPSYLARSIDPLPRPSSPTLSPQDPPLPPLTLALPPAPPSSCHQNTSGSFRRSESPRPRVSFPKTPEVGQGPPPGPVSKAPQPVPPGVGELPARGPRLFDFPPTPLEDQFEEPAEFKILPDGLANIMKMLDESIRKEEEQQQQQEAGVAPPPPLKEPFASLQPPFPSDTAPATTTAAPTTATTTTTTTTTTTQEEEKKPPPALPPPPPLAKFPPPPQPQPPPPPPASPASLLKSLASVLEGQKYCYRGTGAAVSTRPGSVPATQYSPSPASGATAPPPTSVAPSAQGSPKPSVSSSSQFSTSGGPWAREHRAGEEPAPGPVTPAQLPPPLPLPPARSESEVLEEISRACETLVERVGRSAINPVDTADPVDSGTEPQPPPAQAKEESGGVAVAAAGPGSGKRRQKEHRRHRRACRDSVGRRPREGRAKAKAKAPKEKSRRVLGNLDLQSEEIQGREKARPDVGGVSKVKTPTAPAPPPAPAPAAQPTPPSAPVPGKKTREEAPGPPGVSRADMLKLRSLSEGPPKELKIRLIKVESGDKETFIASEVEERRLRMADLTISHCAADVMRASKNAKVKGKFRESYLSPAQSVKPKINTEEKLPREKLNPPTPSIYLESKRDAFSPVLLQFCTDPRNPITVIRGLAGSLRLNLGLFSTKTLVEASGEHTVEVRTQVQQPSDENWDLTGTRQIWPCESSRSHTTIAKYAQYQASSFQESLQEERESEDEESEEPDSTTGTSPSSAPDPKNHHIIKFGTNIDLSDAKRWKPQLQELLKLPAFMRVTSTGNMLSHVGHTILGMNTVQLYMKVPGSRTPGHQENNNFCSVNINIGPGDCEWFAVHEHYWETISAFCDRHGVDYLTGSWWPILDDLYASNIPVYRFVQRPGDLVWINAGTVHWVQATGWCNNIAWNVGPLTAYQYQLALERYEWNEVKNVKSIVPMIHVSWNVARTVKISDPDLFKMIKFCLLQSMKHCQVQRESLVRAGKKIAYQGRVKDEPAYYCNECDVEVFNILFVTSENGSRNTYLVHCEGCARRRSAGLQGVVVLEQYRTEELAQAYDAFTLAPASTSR

O=C1c2ccccc2-c2n[nH]c3cccc1c23
active: inhibition [1]

CCOC(=O)CCNc1cc(N2CCc3ccccc3CC2)nc(-c2ccccn2)n1
active: inhibition (Mus musculus [2]) | inhibition (Mus musculus [3]) | Activity (Mus musculus [4]) | Activity (Mus musculus [5]) | inhibition [6] | inhibition [7] | inhibition [8] | inhibition [9] | inhibition [10]

CC[C@]1(O)C[C@@H]2CN(CCc3c([nH]c4ccccc34)[C@@](C(=O)OC)(c3cc4c(cc3OC)N(C)[C@H]3[C@@](O)(C(=O)OC)[C@H](OC(C)=O)[C@]5(CC)C=CCN6CC[C@]43[C@@H]65)C2)C1
active: Activity [11]
